Test results: PubChem BioAssay AID2060886 (Molecular Pharmacology Branch, DTP, NCI, 2025)

Tested on: 653999-131-R-J2-PDC complex spheroids, growth inhibition
Assay: Anticancer human tumor 653999-131-R-J2-PDC patient-derived lung adenocarcinoma cell line growth inhibition [RAS]
Settings: for IC50: curve of first compound; for viability, T/C: stronger effect = lower value
From the text: RAS pathway inhibitors in Combinations in Complex Spheroids
A high-throughput screen of multi-cell type tumor spheroids was designed to identify active combinations of RAS pathway inhibitors and targeted small molecules. Complex spheroids include a stromal component modeled by human endothelial cells (HUVEC) and fibroblasts modeled by human mesenchymal stem cells (MSCs). The concentration ranges selected for each drug and investigational agent were based upon clinically achievable concentrations if the clinical Cmax of the agent was known.
Compounds. The drugs and investigational agents: abemaciclib (NSC768073), cobimetinib (NSC768068), divarasib (GDC6063, NSC841802), docetaxel (NSC628503), GDC-1971 (RLY-1971, NSC841576), gemcitabine (NSC613327), inavolisib (NSC800729), ipatasertib (NSC767898), KB-0742 (NSC834161), MRTX-1133 (NSC836407), osimertinib (NSC779217), RMC-4630 (NSC839698), RMC-6236 (NSC851965), RMC-6291 (NSC852671), Ro-3306 (NSC812927), sapanisertib (NSC764658), SN-38 (NSC673596), staurosporine (NSC755774), SY5609 (NSC837396), and tovorafenib (DAY101, NSC766906), were obtained from the National Cancer Institute (NCI) Developmental Therapeutics Program Chemical Repository. The FDA-approved anticancer drug set is available from the NCI Developmental Therapeutics Program. […] The stock solutions were prepared in dimethyl sulfoxide (DMSO, Sigma-Aldrich, St. Louis, MO, cat. D2650) at 800-fold the tested concentration and stored at -70 degrees C prior to their use. All drugs and investigational agents were tested over a range starting from a high concentration at or near the clinical Cmax and decreasing in half-log increments. If the clinical Cmax for an agent had not been determined, the highest concentration tested was 10 microM.
Cell Culture. All cells were maintained in an incubator at 37 degrees C and 5% CO2 with 95% humidity. The PDC lines were cultured according to standard operating procedures established by the NCI PDMR. All PDCs were thawed and cultured in Matrigel-coated flasks prepared with a working solution of 1X Ham's F-12 nutrient mix, without supplementation (Invitrogen, Waltham, MA, cat. 11765054), 100 U/mL penicillin-streptomycin (Invitrogen, cat. 15140122), and 2.5% Matrigel (Corning Inc., Corning, NY, cat. 354248) for the first three passages. The 362531-283-R-J2-PDC and 782815-120-R-J1-PDC lines were cultured in 6C/Colon 1B media, which includes advanced DMEM/F-12 (Thermo Fisher Scientific, cat. 12634028), 10 mM HEPES (Thermo Fisher Scientific, cat. 15630080), 1X GlutaMAX supplement (Thermo Fisher Scientific, cat. 35050061), 0.1 mg/mL primocin (InvivoGen, San Diego, CA, cat. ant-pm-2), 10% defined fetal bovine serum, heat inactivated (HyClone Laboratories Inc., Logan, UT, cat. SH30070.03HI), 50% L-WRN conditioned media (ATCC, cat. CRL-3276), 1.25 mM N-Acetyl-L-cysteine (Sigma-Aldrich, cat. A9165), 10 mM nicotinamide (Sigma-Aldrich, cat. N0636), 1X B-27 supplement (Thermo Fisher Scientific, cat. 17504044), 1X N-2 supplement (Thermo Fisher Scientific, cat. 17502048), 50 ng/mL human EGF (Thermo Fisher Scientific, cat. PHG0311), and 10 microM Y-27632 dihydrochloride (Tocris Bioscience, cat. 1254). The K12877-001-R-J1-PDC line was cultured in 6I media, which includes all 6C/Colon 1B media plus 10 ng/mL human FGF-10 (PeproTech, cat. 100-26), 1 ng/mL human FGF-2 (PeproTech, cat. 100-18B), 1 µM prostaglandin E2 (Tocris Bioscience, cat. 2296), […] hydrocortisone (Sigma-Aldrich, cat. H4001), and […] bovine insulin (Sigma-Aldrich, cat. I6634). The K86415-001-R-J1-PDC line was cultured in 6D media, which includes all 6C/Colon 1B media components minus the L-WRN conditioned media. The 485176-168-R4-J1-PDC was cultured in PANC media, which includes all 6C/Colon 1B media plus 100 ng/mL human FGF-10 (PeproTech, cat. 100-26), 500 nM SB-431542 (Selleckchem, cat. S1067), and 10 nM gastrin (Tocris Bioscience, cat. 3006). […]
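Further: spheroids exposed to the agents for seven days before the readout.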

Nc1ccn(C2OC(CO)C(O)C2(F)F)c(=O)n1 (configuration not stated) + CCn1c(-c2cc(N3CCN(C)CC3)cnc2C(C)OC)c2c3cc(ccc31)-c1csc(n1)CC(NC(=O)C1CC1C)C(=O)N1CCCC(N1)C(=O)OCC(C)(C)C2
IC50 (second compound 0.000949 µM): 14.1 nM
IC50 (second compound 0.003 µM): 6.3 nM
IC50 (second compound 0.00949 µM): < 3.16 nM
IC50 (second compound 0.03 µM): < 3.16 nM
IC50 (second compound 0.0949 µM): < 3.16 nM
IC50 (second compound 0.3 µM): < 3.16 nM
viability, T/C (second compound 0.000949 µM, first compound 0.00316 µM): 67.6%
viability, T/C (second compound 0.000949 µM, first compound 0.01 µM): 57%
viability, T/C (second compound 0.000949 µM, first compound 0.0316 µM): 34.4%
viability, T/C (second compound 0.000949 µM, first compound 0.1 µM): 34.4%
viability, T/C (second compound 0.000949 µM, first compound 0.316 µM): 25.9%
viability, T/C (second compound 0.000949 µM, first compound 1 µM): 23%
viability, T/C (second compound 0.003 µM, first compound 0.00316 µM): 59.1%
viability, T/C (second compound 0.003 µM, first compound 0.01 µM): 43.1%
viability, T/C (second compound 0.003 µM, first compound 0.0316 µM): 31.8%
viability, T/C (second compound 0.003 µM, first compound 0.1 µM): 20.8%
viability, T/C (second compound 0.003 µM, first compound 0.316 µM): 16.2%
viability, T/C (second compound 0.003 µM, first compound 1 µM): 19.7%
viability, T/C (second compound 0.00949 µM, first compound 0.00316 µM): 45.6%
viability, T/C (second compound 0.00949 µM, first compound 0.01 µM): 30.9%
viability, T/C (second compound 0.00949 µM, first compound 0.0316 µM): 25%
viability, T/C (second compound 0.00949 µM, first compound 0.1 µM): 19.3%
viability, T/C (second compound 0.00949 µM, first compound 0.316 µM): 18.2%
viability, T/C (second compound 0.00949 µM, first compound 1 µM): 15.1%
viability, T/C (second compound 0.03 µM, first compound 0.00316 µM): 37.3%
viability, T/C (second compound 0.03 µM, first compound 0.01 µM): 29.4%
viability, T/C (second compound 0.03 µM, first compound 0.0316 µM): 20.3%
viability, T/C (second compound 0.03 µM, first compound 0.1 µM): 14.7%
viability, T/C (second compound 0.03 µM, first compound 0.316 µM): 12.8%
viability, T/C (second compound 0.03 µM, first compound 1 µM): 11.6%
viability, T/C (second compound 0.0949 µM, first compound 0.00316 µM): 26.7%
viability, T/C (second compound 0.0949 µM, first compound 0.01 µM): 30.3%
viability, T/C (second compound 0.0949 µM, first compound 0.0316 µM): 18.8%
viability, T/C (second compound 0.0949 µM, first compound 0.1 µM): 16.7%
viability, T/C (second compound 0.0949 µM, first compound 0.316 µM): 11.7%
viability, T/C (second compound 0.0949 µM, first compound 1 µM): 11%
viability, T/C (second compound 0.3 µM, first compound 0.00316 µM): 25.9%
viability, T/C (second compound 0.3 µM, first compound 0.01 µM): 24.5%
viability, T/C (second compound 0.3 µM, first compound 0.0316 µM): 20.7%
viability, T/C (second compound 0.3 µM, first compound 0.1 µM): 18.4%
viability, T/C (second compound 0.3 µM, first compound 0.316 µM): 13.9%
viability, T/C (second compound 0.3 µM, first compound 1 µM): 12.8%
